pIC50: −log10 of the molar value. Where two headings read alike, the source gives them in different places.
Experiments:
[1] = target: T1, mineralcorticoid receptor (MR) (Homo sapiens, UniProt P08235); assay: MR antagonism, luciferase reporter cell line assay; assay type: cell-based
T1 sequence (P08235 1-984): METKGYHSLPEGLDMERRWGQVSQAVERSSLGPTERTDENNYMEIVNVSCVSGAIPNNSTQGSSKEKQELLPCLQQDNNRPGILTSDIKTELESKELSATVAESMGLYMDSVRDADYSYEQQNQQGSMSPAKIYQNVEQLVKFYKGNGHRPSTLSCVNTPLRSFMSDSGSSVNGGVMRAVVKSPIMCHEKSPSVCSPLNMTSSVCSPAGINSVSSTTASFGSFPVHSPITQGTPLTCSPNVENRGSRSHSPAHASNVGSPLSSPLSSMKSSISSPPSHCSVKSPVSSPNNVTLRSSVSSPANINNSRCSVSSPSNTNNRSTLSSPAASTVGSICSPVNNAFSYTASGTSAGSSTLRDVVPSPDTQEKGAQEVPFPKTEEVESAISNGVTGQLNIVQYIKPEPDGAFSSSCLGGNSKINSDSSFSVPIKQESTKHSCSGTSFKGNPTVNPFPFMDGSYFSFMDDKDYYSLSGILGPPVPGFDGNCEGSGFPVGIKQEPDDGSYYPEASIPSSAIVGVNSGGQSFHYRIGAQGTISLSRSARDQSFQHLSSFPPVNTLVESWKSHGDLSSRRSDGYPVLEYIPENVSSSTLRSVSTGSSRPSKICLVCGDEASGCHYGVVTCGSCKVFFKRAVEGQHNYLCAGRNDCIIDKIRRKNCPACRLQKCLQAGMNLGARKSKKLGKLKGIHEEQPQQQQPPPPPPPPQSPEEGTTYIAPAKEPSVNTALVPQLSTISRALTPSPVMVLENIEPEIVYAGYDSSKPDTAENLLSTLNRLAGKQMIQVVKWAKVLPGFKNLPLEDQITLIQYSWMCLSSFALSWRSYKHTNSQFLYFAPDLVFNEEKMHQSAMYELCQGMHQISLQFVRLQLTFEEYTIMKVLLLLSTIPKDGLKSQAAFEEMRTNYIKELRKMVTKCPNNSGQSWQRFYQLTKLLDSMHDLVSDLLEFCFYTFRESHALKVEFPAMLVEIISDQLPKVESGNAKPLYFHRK
Protocol: The derivatives according to the invention having the general chemical formula 1 have a very strong gestagenic activity. […] They should therefore have in vivo potassium-retaining, natriuretic (antimeralcorticoid) action. These properties were determined using the test described below:
For the culturing of the cells used for the assay, the culture medium used was DMEM (Dulbecco's Modified Eagle Medium: […] of glucose; PAA, #E15-009) with 10% FCS (Biochrom, S0115, batch #615B), 4 mM L-glutamine, 1% penicillin/streptomycin, 1 mg/ml of G418 and 0.5 μg/ml of puromycin.
Reporter cell lines were grown in a density of 4×10^4 cells per hollow in white, nontransparent tissue culture plates in each case having 96 hollows (PerkinElmer, #P12-106-017) and kept in 6% DCC—FCS (activated carbon-treated serum, for the removal of interfering components contained in the serum). The compounds to be investigated were added eight days later, and the cells were incubated with the compounds for 16 hours. The experiments were carried out in triplicate. At the end of the incubation, the effector-containing medium was removed and replaced by lysis buffer. After luciferase assay substrate (promega, #E1501) had been added, the plates containing the 96 hollows were then introduced into a microplate luminometer (Pherastar, BMG labtech), and the luminescence was measured. The IC50 values were evaluated using software for the calculation of dose-activity relationships.

[2] = target: T2, PR (Rattus norvegicus, UniProt Q63449); assay: maintenance of pregnancy test on the rat; assay type: in vivo; settings: ovarectomized pregnant rats; for PR in vivo ED50 (pregnancy-maintaining dose): s.c. once daily from day 8 to day 15 or 21, with oestrone 5 μg/kg/day
T2 construct: The maintenance of pregnancy test on ovarectomized rats serves for the determination of the peripheral gestagenic activity of a compound; from tissue; host or cells: whole animal: pregnant, ovariectomized rats
T2 sequence (Q63449 1-923): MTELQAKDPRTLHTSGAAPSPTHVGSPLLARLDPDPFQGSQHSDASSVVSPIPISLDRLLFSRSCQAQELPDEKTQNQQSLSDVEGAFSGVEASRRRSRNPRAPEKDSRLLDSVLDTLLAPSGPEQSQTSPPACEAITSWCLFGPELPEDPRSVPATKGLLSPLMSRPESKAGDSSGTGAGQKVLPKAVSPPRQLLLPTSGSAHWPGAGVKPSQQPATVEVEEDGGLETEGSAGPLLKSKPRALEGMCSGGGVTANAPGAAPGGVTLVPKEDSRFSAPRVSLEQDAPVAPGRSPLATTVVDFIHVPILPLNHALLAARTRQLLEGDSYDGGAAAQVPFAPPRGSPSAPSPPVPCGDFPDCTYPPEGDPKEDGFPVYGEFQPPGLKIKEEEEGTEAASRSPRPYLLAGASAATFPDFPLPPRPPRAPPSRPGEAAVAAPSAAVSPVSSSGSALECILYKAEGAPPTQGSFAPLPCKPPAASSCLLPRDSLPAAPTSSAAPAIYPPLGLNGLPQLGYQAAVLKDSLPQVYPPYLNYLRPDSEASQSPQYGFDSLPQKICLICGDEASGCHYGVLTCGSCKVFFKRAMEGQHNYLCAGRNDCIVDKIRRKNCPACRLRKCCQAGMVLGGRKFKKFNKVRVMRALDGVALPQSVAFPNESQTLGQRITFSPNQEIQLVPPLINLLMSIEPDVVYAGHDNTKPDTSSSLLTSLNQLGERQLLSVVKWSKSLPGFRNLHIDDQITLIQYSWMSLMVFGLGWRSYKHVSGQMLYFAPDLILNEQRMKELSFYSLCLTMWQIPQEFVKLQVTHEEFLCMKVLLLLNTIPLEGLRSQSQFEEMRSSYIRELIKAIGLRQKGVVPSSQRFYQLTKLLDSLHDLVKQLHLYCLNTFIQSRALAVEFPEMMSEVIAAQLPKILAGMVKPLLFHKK
Source text: Carrying out the maintenance of pregnancy test on the rat:
In pregnant rats, the removal of the corpora lutea or oophorectomy induces an abortion. By means of the exogenous administration of progestins (gestagens) in combination with a suitable dose of an oestrogen, the maintenance of pregnancy is possible. The maintenance of pregnancy test on ovarectomized rats serves for the determination of the peripheral gestagenic activity of a compound.
Rats were paired overnight during proestrus. Pairing was checked on the morning of the following day by the appraisal of a vaginal smear. The presence of the sperm was evaluated here as day 1 of a commencing pregnancy. On day 8 of the pregnancy, the animals were ovarectomized under ether anaesthesia. The treatment with test compound and exogenous oestrogen (oestrone, 5 μg/kg/day) was carried out subcutaneously once daily from day 8 to day 15 or day 21 of the pregnancy. The first administration on day 8 was carried out two hours before oophorectomy. Intact control animals were given exclusively vehicle.
At the end of the experiment (day 15 or day 21), the animals were sacrificed under a CO2 atmosphere, and live foetuses (foetuses having a beating heart) and implantation sites (early resorptions and dead foetuses including autolysis and atrophic placentas) were counted in both uterine horns. On day 22, it was moreover possible to examine foetuses for malformations. In uteri without foetuses or implantation sites, the number of nidation sites was determined by staining with 10% strength ammonium sulphide solution. The maintenance of pregnancy rate was calculated as the quotient of the number of living foetuses and the total number of nidation sites (both resorbed and dead foetuses and nidation sites). For drospirenone, this value is 3.5 mg/kg/day.

[3] = reporter cell lines, 16 hours incubation, luciferase luminescence, triplicate
[4] = reporter cell lines, 16 hours incubation, luciferase luminescence, triplicate, read-out: MR antagonism IC50

pregnancy-maintaining dose (ED50) ([2]; subcutaneous, with oestrone 5 μg/kg/day)	SMILES	pIC50 [1]	MR antagonism activity [% of the maximum effect] [1, 3]	PR in vivo ED50 (pregnancy-maintaining dose) [2]	pIC50 [1, 4]
	CC[C@]12CC[C@H]3[C@@H](CCC4=CC(=O)CC[C@@H]43)[C@@H]1[C@@H]1C[C@@H]1[C@@H]2C#N (single isomer, unassigned) [17β-Cyano-15β,16β-methylene-18a-homo-19-nor-androst-4-en-3-one]	7.74	103.44 % of the maximum effect	0.01 mg/kg/d s.c.	
	CC[C@]12CC[C@H]3[C@@H]([C@H]4C[C@H]4C4=CC(=O)CC[C@@H]43)[C@@H]1[C@@H]1C[C@@H]1[C@@H]2C#N [17β-Cyano-6β,7β-15β,16β-bismethylene-18a-homo-19-nor-androst-4-en-3-one]		97.52 % of the maximum effect	0.1 mg/kg/d s.c.	8.03
	CC[C@]12CC[C@H]3[C@@H]([C@H](C)CC4=CC(=O)CC[C@@H]43)[C@@H]1CC[C@@H]2C#N [17β-Cyano-7α-methyl-18a-homo-19-nor-androst-4-en-3-one]		99.07 % of the maximum effect		7.80
	CC[C@]12CC[C@H]3[C@@H]([C@@H]4C[C@@H]4C4=CC(=O)CC[C@@H]43)[C@@H]1[C@@H]1C[C@@H]1[C@]2(C)C#N [17β-Cyano-17α-methyl-6α,7α-methylene-15β,16β-methylene-18a-homo-19-nor-androst-4-en-3-one]		89.49 % of the maximum effect	1.1 mg/kg/d s.c.	7.00
	CC[C@]12CC[C@H]3[C@@H](CCC4=CC(=O)CC[C@@H]43)[C@@H]1[C@@H]1C[C@@H]1[C@]2(C)C#N [17β-Cyano-17α-methyl-15β,16β-methylene-18a-homo-19-nor-androst-4-en-3-one]		64.87 % of the maximum effect	0.1 mg/kg/d s.c.	9.32
	CC[C@]12CC[C@H]3[C@@H](CCC4=CC(=O)CC[C@@H]43)[C@@H]1CC[C@@H]2C#N [17β-Cyano-18a-homo-19-nor-androst-4-en-3-one]		94.48 % of the maximum effect	2.3 mg/kg/d s.c.	8.04
3.5 mg/kg/day	C[C@]12CCC(=O)C=C1[C@@H]1C[C@@H]1[C@H]1[C@@H]3[C@@H]4C[C@@H]4[C@@]4(CCC(=O)O4)[C@@]3(C)CC[C@@H]12 [drospirenone, 6β, 7β-15β,16β-dimethylene-3-oxo-17-pregn-4-ene-21,17β-carbolactone, reference compound]				
